Results from patent publication US4737517A, “Coumarin derivatives, pharmaceutical compositions containing the same, and the use thereof in the treatment of cancer” (FIDIA, S.p.A., priority 1983, dated 1988).
Counter-ions that a name gives are not always drawn.

The compounds below were run on platelet hyper-aggregation induced by ADP (assay: Inhibition of ADP-induced platelet hyperaggregation in vitro (Born's method, aggregometer ELVI 840)). Conditions: Oryctolagus cuniculus, 0.5 h, ADP 20 μg/ml, 100 γ/ml of active compound, rabbit PRP, incubated 30 minutes at 37° C, read-out: Inhibition of platelet hyper-aggregation induced by ADP.
Assay type: cell-based, New Zealand rabbits
Protocol: Two separate centrifugations are effected (at 1000 rpm and at 6000 rpm), thus obtaining PRP ([…]) and PPP ([…]); the first is diluted with the second in order to obtain a platelet concentration of 300,000 per mm^3 (the count is effected in a Buerker apparatus). The compounds with a platelet antiaggregating activity of the present invention are added at the desired concentrations and incubated for 30 minutes at 37° C. with the aggregating agents. […] The various compounds represented by the numbers in the first column are identifiable by the numbers in the second column which refer to the examples described below in this specification.

In order of falling inhibition at 100 µg/mL:
1. C=CCOc1c(CN2CCOCC2)cc2c(C)cc(=O)oc2c1CC=C [Compound 28, 4-methyl-6-(4-morpholinylmethyl)-7-allyloxy-8-allylcumarin hydrochloride]  54%
2. C=CCc1c(O)c(CN(CC)CC)cc2c(C)cc(=O)oc12 [Compound 121, 4-methyl-6-diethylaminomethyl-7-hydroxy-8-allylcumarin hydrochloride]  51%
3. C=CCc1c(O)c(CN2CCCC2)cc2c(C)cc(=O)oc12 [Compound 117, 4-methyl-6-(1-pyrrolidinylmethyl)-7-hydroxy-8-allylcumarin hydrochloride]  44%
4. CCOC(=O)C(C)(C)Oc1c(CN2CCOCC2)cc2c(C)c(CCN(CC)CC)c(=O)oc2c1Cl [Compound 68, Ethyl ester of 2-[3-(2-diethylaminoethyl)-4-methyl-6-(4-morpholinylmethyl)-8-chlorocumarin-7-yl]oxy-2-methylpropionic acid dihydrochloride]  41%
5. C=CCc1c(O)c(CN2CCCCC2)cc2c(C)cc(=O)oc12 [Compound 124, 4-methyl-6-(1-piperidinylmethyl)-7-hydroxy-8-allylcumarin hydrochloride]  38%
6. C=CCc1c(OCC(=O)OCC)c(CN2CCOCC2)cc2c(-c3ccccc3)cc(=O)oc12 [Compound 51, Ethyl ester of [4-phenyl-6-(4-morpholinylmethyl)-8-allylcumarin-7-yl]oxy acetic acid hydrochloride]  37%
7. C=CCc1c(O)c(CN2CCCC(O)C2)cc2c(C)cc(=O)oc12 (stereo not shown) [Compound 201, 4-methyl-6-[(3-hydroxy-1-piperidinyl)methyl]-7-hydroxy-8-allylcumarin hydrochloride]  32%
8. C=CCc1c(OCC(=O)OCC)c(CN2CCOCC2)cc2c(C)cc(=O)oc12 [Compound 27, Ethyl ester of the acid [4-methyl-6-(4-morpholinylmethyl)-8-allylcumarin-7-yl]oxyacetic]  32%
9. Cc1cc(=O)oc2c(C)c(O)c(CN(C)C)cc12 [Compound 130, 4,8-dimethyl-6-dimethylaminomethyl-7-hydroxycumarin hydrochloride]  29%
10. Cc1cc(=O)oc2c(Cl)c(O)c(CN3CCOCC3)cc12 [Compound 69, 4-methyl-6-(4-morpholinylmethyl)-7-hydroxy-8-chlorocumarin hydrochloride]  29%
11. CCN(CC)CCc1c(C)c2cc(CN3CCOCC3)c(OC)c(Cl)c2oc1=O [Compound 105, 3-(2-diethylaminoethyl)-4-methyl-6-(4-morpholinylmethyl)-7-methoxy-8-chlorocumarin dihydrochloride]  28%
12. CCN(CC)Cc1cc2c(C)cc(=O)oc2c(Cl)c1O [Compound 76, 4-methyl-6-diethylaminomethyl-7-hydroxy-8-chlorocumarin hydrochloride]  27%
13. C=CCOc1c(CN2CCOCC2)cc2c(-c3ccccc3)cc(=O)oc2c1CC=C [Compound 50, 4-phenyl-6-(4-morpholinylmethyl)-7-allyloxy-8-allylcumarin hydrochloride]  25%
14. C=CCc1c(O)c(CN2CCN(CCO)CC2)cc2c(-c3ccccc3)cc(=O)oc12 [Compound 49, 4-phenyl-6-[[4-(2-hydroxyethyl)-1-piperazinyl]methyl]-7-hydroxy-8-allylcumarin dihydrochloride]  25%
15. CCN(CC)CCc1c(C)c2cc(CN3CCOCC3)c(O)c(Cl)c2oc1=O [Compound 58, 3-(2-diethylaminoethyl)-4-methyl-6-(4-morpholinylmethyl)-7-hydroxy-8-chlorocumarin dihydrochloride]  25%
16. CCOC(=O)COc1c(CN2CCOCC2)cc2c(C)c(CCN(CC)CC)c(=O)oc2c1Cl [Compound 62, Ethyl ester of [3-(2-diethylaminoethyl)-4-methyl-6-(4-morpholinylmethyl)-8-chlorocumarin-7-yl]oxyacetic acid dihydrochloride]  23%
17. C=CCc1c(OC(C)(C)C(=O)OCC)c(CN2CCOCC2)cc2c(-c3ccccc3)cc(=O)oc12 [Compound 52, Ethyl ester of 2-[4-phenyl-6-(4-morpholinylmethyl)-8-allylcumarin-7-yl]oxy-2-methylpropionic acid hydrochloride]  22%
18. C=CCc1c(O)c(CN2CCC(O)CC2)cc2c(C)cc(=O)oc12 [Compound 200, 4-methyl-6-[(4-hydroxy-1-piperidinyl)methyl]-7-hydroxy-8-allylcumarin hydrochloride]  21%
19. C=CCc1c(O)c(CN2CCOCC2)cc2c(-c3ccccc3)cc(=O)oc12 [Compound 44, 4-phenyl-6-(4-morpholinylmethyl)-7-hydroxy-8-allylcumarin hydrochloride]  20%
20. Cc1cc(=O)oc2c(C)c(O)c(CN3CCOCC3)cc12 [Compound 188, 4,8-dimethyl-6-(4-morpholinylmethyl)-7-hydroxycoumarin hydrochloride]  19%
21. C=CCc1c(O)c(CN2CCOCC2)cc2c(C)cc(=O)oc12 [Compound 25, 4-methyl-6-(4-morpholinylmethyl)-7-hydroxy-8-allylcumarin hydrochlorode]  19%
22. C=CCc1c(OC(C)(C)C(=O)OCC)c(CN2CCOCC2)cc2c(C)cc(=O)oc12 [Compound 29, Ethyl ester of the acid 2-[4-methyl-6-(4-morpholinylmethyl)-8-allylcumarin-7-yl]oxy-2-methylpropionic hydrochloride]  19%
23. C=CCOc1c(CN2CCOCC2)cc2c(C)c(CCN(CC)CC)c(=O)oc2c1Cl [Compound 67, 3-(2-diethylaminoethyl)-4-methyl-6-(4-morpholinylmethyl)-7-allyloxy-8-chlorocumarin hydrochloride]  18%
24. Cc1cc(=O)oc2c(Cl)c(O)c(CN(C)C)cc12 [Compound 132, 4-methyl-6-dimethylaminomethyl-7-hydroxy-8-chlorocumarin hydrochloride]  13%
25. O=c1cc(-c2ccccc2)c2cc(CN3CCOCC3)c(O)c(Cl)c2o1 [Compound 102, 4-phenyl-6-(4-morpholinylmethyl)-7-hydroxy-8-chlorocumarin hydrochloride]  12%
